# Measured values: patent publication US4758557A, “Cephalosporin derivatives and bactericides containing the same” (Meiji Seika Kaisha, Ltd., priority 1985, dated 1988)
# Read-outs that look alike come from different tables or passages of the source.
# Key:
# Experiment in all cases: MIC in agar plate culture-dilution assay
# Format in all cases: cell-based
# [1] = tested on: Escherichia coli NIHJ JC-2; conditions: NIHJJC2
# Description: (§1) The compounds of the formula (I) and salts thereof of the present invention are new, and have high and broad antibacterial activity capable of inhibiting the growth of pathogenic microorganisms of a broad range including gram-positive and gram-negative bacteria. In order to show the usability of the compounds of the formula (I), the antibacterial activity of some typical compounds of the formula (I) was actually measured, and the results are given in the following Table-1.
# (§2) MIC in agar plate culture-dilution assay (Y/ml)
# [2] = tested on: Pseudomonas aeruginosa M-0148; conditions: M0148
# Description: as §1, §2
# [3] = tested on: Serratia marcescens No. 1
# Description: as §1, §2
# [4] = tested on: Staphylococcus aureus 209P JC-1
# Description: as §1, §2
# Proteus rettgeri GN-624 = conditions: Providencia rettgeri, GN624
# Description: as §1, §2
# [5] = tested on: Bacillus subtilis ATCC 6633; conditions: ATCC6633
# Description: as §1, §2
# [6] = tested on: Staphylococcus aureus Smith (1)
# Description: as §1, §2
# [7] = tested on: Enterobacter cloacae GN-7471; conditions: GN7471
# Description: as §1, §2
# [8] = tested on: Citrobacter freundii GN-346; conditions: GN346
# Description: as §1, §2
# Proteus vulgaris GN-76 = conditions: GN76
# Description: as §1, §2
# [9] = tested on: Pseudomonas maltophilia M-0627; conditions: Stenotrophomonas maltophilia, M0627
# Description: as §1, §2
# [10] = tested on: Pseudomonas aeruginosa E-2; conditions: E2
# Description: as §1, §2
# [11] = tested on: Pseudomonas aeruginosa IAM-1007; conditions: IAM1007
# Description: as §1, §2
# [12] = tested on: Klebsiella pneumoniae GN-69; conditions: GN69
# Description: as §1, §2
# [13] = Pseudomonas aeruginosa M-0148, agar plate culture-dilution, read-out: MIC
# [14] = Serratia marcescens No. 1, agar plate culture-dilution, read-out: MIC
# [15] = Staphylococcus aureus 209P JC-1, agar plate culture-dilution, read-out: MIC
# [16] = Proteus rettgeri GN-624, agar plate culture-dilution, read-out: MIC
# [17] = Bacillus subtilis ATCC 6633, agar plate culture-dilution, read-out: MIC
# [18] = Staphylococcus aureus Smith (1), agar plate culture-dilution, read-out: MIC
# [19] = Enterobacter cloacae GN-7471, agar plate culture-dilution, read-out: MIC
# [20] = Citrobacter freundii GN-346, agar plate culture-dilution, read-out: MIC
# [21] = Proteus vulgaris GN-76, agar plate culture-dilution, read-out: MIC
# [22] = Pseudomonas maltophilia M-0627, agar plate culture-dilution, read-out: MIC
# [23] = Pseudomonas aeruginosa E-2, agar plate culture-dilution, read-out: MIC
# [24] = Pseudomonas aeruginosa IAM-1007, agar plate culture-dilution, read-out: MIC
# [25] = Klebsiella pneumoniae GN-69, agar plate culture-dilution, read-out: MIC
SMILES,MIC [1] [mg/L],"MIC [2, 13] [mg/L]","MIC [3, 14] [mg/L]","MIC [4, 15] [mg/L]",MIC (Proteus rettgeri GN-624; [16]) [mg/L],"MIC [5, 17] [mg/L]","MIC [6, 18] [mg/L]","MIC [7, 19] [mg/L]","MIC [8, 20] [mg/L]",MIC (Proteus vulgaris GN-76; [21]) [mg/L],"MIC [9, 22] [mg/L]","MIC [10, 23] [mg/L]","MIC [11, 24] [mg/L]","MIC [12, 25] [mg/L]",further results
"CC(C)(O/N=C(\C(=O)N[C@@H]1C(=O)N2C(C(=O)[O-])=C(C[n+]3ccccc3)CS[C@H]12)c1csc(N)n1)C(=O)O [B, ceftazidime, reference compound]",0.2,,,,,,,,,,,,,,"MIC ([2]; Pseudomonas aeruginosa): 3.13 mg/L; MIC ([3]; Serratia marcescens, NO.1): < 0.025 mg/L; MIC ([4]; Staphylococcus aureus, 209P): 3.13 mg/L; MIC (Proteus rettgeri GN-624): 0.39 mg/L; MIC ([5]; Bacillus subtilis): 6.25 mg/L; MIC ([6]; Staphylococcus aureus): 3.13 mg/L; MIC ([7]; Enterobacter cloacae): 3.13 mg/L; MIC ([8]; Citrobacter freundii): 0.78 mg/L; MIC (Proteus vulgaris GN-76; Proteus vulgaris): 0.05 mg/L; MIC [9]: 50 mg/L; MIC ([10]; Pseudomonas aeruginosa): 1.56 mg/L; MIC ([11]; Pseudomonas aeruginosa): 1.56 mg/L; MIC ([12]; Klebsiella pneumoniae): 0.1 mg/L"
"Nc1nc(C(NC(=O)c2cc(=O)c(O)cn2O)C(=O)N[C@@H]2C(=O)N3C(C(=O)O)=C(CSc4nc5ccccc5s4)CS[C@H]23)cs1 (stereo partly drawn) [Example 26, (6R,7R)7-[(RS)2-(2-Aminothiazol-4-yl)-2-(1,5-dihydroxy-4-pyridone-2-carboxamido)acetamido]-3-(benzothiazol-2-yl)thiomethyl-ceph-3-em-4-carboxylic acid]",0.1,0.2,0.78,3.13,3.13,3.13,3.13,1.56,0.39,0.2,3.13,0.05,0.2,0.05,
"Nc1nc(C(NC(=O)c2cc(=O)c(O)cn2O)C(=O)N[C@@H]2C(=O)N3C(C(=O)[O-])=C(CSc4cc[n+](CC(=O)O)c5c4CCC5)CS[C@H]23)cs1 (stereo partly drawn) [Example 17, (6R,7R)7-[(RS)2-(2-Aminothiazol-4-yl)-2-(1,5-dihydroxy-4-pyridone-2-carboxamido)acetamido]-3-(2,3-cyclopenteno-1-carboxylmethylpyridinium-4-yl)-thiomethyl-ceph-3-em-4-carboxylate]",< 0.025,1.56,0.2,3.13,0.1,3.13,3.13,0.78,0.78,0.2,6.25,0.1,0.05,0.1,
"C[n+]1cccc(SCC2=C(C(=O)[O-])N3C(=O)[C@@H](NC(=O)C(NC(=O)c4cc(=O)c(O)cn4O)c4csc(N)n4)[C@H]3SC2)c1 (stereo partly drawn) [Example 4, (6R,7R)7-[(RS)2-(2-Aminothiazol-4-yl)-2-(1,5-dihydroxy-4-pyridone-2-carboxamido)acetamido]-3-(1-methylpyridinium-3-yl)thiomethyl-ceph-3-em-4-carboxylate]",0.1,0.39,0.2,3.13,0.2,12.5,3.13,3.13,6.25,0.39,,0.1,0.2,0.1,
"Nc1nc(C(NC(=O)c2cc(=O)c(O)cn2O)C(=O)N[C@@H]2C(=O)N3C(C(=O)[O-])=C(CSc4cc[n+](C5CC5)cc4)CS[C@H]23)cs1 (stereo partly drawn) [Example 8, (6R,7R)7-[(RS)2-(2-Aminothiazol-4-yl)-2-(1,5-dihydroxy-4-pyridone-2-carboxamido)acetamido]-3-(1-cycloproylpyridinium-4-yl)thiomethyl-ceph-3-em-4-carboxylate]",0.05,1.56,0.2,1.56,0.1,3.13,1.56,1.56,0.78,0.2,,0.1,0.2,0.05,
"Nc1nc(C(NC(=O)c2cc(=O)c(O)cn2O)C(=O)N[C@@H]2C(=O)N3C(C(=O)O)=C(CSc4ccncc4)CS[C@H]23)cs1 (stereo partly drawn) [Example 16, (6R,7R)7-[(RS)2-(2-Aminothiazol-4-yl)-2-(1,5-dihydroxy-4-pyridone-2-carboxamido)acetamido]-3-(pyridine-4-yl)thiomethyl-ceph-3-em-4-carboxylic acid]",0.1,3.13,0.39,3.13,1.56,6.25,3.13,1.56,0.78,0.39,6.25,0.1,< 0.025,0.2,

# The remaining compounds from weak to strong by MIC [1], led by results:
MIC [1] [mg/L],"MIC [2, 13] [mg/L]","MIC [3, 14] [mg/L]","MIC [4, 15] [mg/L]",MIC (Proteus rettgeri GN-624; [16]) [mg/L],"MIC [5, 17] [mg/L]","MIC [6, 18] [mg/L]","MIC [7, 19] [mg/L]","MIC [8, 20] [mg/L]",MIC (Proteus vulgaris GN-76; [21]) [mg/L],"MIC [9, 22] [mg/L]","MIC [10, 23] [mg/L]","MIC [11, 24] [mg/L]","MIC [12, 25] [mg/L]",SMILES,further results
0.1,50,0.2,0.78,1.56,1.56,0.78,3.13,0.39,0.78,50,0.2,6.25,0.2,"C[n+]1ccc(SCC2=C(C(=O)[O-])N3C(=O)[C@@H](NC(=O)C(NC(=O)c4cc(=O)c(O)c[nH]4)c4csc(N)n4)[C@H]3SC2)cc1 (stereo partly drawn) [A, reference compound]",
0.1,0.2,0.39,1.56,0.2,3.13,3.13,0.78,0.2,0.1,0.78,< 0.025,0.2,0.05,Nc1nc(C(NC(=O)c2cc(=O)c(O)cn2O)C(=O)N[C@@H]2C(=O)N3C(C(=O)O)=C(CSc4ccnc5c4CCC5)CS[C@H]23)cs1 (stereo partly drawn) [Example 15],
0.05,0.78,0.2,1.56,0.1,3.13,3.13,1.56,0.78,0.39,,0.05,0.1,0.05,"Nc1nc(C(NC(=O)c2cc(=O)c(O)cn2O)C(=O)N[C@@H]2C(=O)N3C(C(=O)[O-])=C(CSc4cc[n+](CCO)cc4)CS[C@H]23)cs1 (stereo partly drawn) [Example 5, (6R,7R)7-[(RS)2-(2-Aminothiazol-4-yl)-2-(1,5-dihydroxy-4-pyridone-2-carboxamido)acetamido]-3-[1-(2-hydoroxyethyl)pyridinium-4-yl]thiomethyl-ceph-3-em-4-carboxylate]",
0.05,0.78,0.2,1.56,0.2,3.13,3.13,1.56,1.56,0.2,,0.05,0.1,0.1,"NC(=O)C[n+]1ccc(SCC2=C(C(=O)[O-])N3C(=O)[C@@H](NC(=O)C(NC(=O)c4cc(=O)c(O)cn4O)c4csc(N)n4)[C@H]3SC2)cc1 (stereo partly drawn) [Example 6, (6R,7R)7-[(RS)2-(2-Aminothiazol-4-yl)-2-(1,5-dihydroxy-4-pyridone-2-carboxamido)acetamido]-3-(1-carbamoylmethylpyridinium-4-yl)thiomethyl-ceph-3-em-4-carboxylate]",
0.05,0.39,0.2,3.13,0.2,3.13,3.13,0.78,0.39,0.1,1.56,0.1,0.39,0.05,"Cn1c(SCC2=C(C(=O)O)N3C(=O)[C@@H](NC(=O)C(NC(=O)c4cc(=O)c(O)cn4O)c4csc(N)n4)[C@H]3SC2)nnc(O)c1=O (stereo partly drawn) [Example 22, (6R,7R)7-[(RS)2-(2-Aminothaizol-4-yl)-2-(1,5-dihydroxy-4-pyridone-2-carboxamido)acetamido]-3-(4,5-dihydro-4-methyl-5-oxo-6-hydroxy-1,2,4-triazin-3-yl)thiomethyl-ceph-3-em-4-carboxylic acid]",
